The subject of assay [1] is sensory neurons myelinated by Schwann cells. As to the kind of experiment: Neuroprotection on myelinated sensory neuron/Schwann cell coculture, cisplatin poisoning, curative protocol (co-incubation 24 h). It is filed as cell-based, rat. The source says: The in vitro model used is a culture of sensory neurons myelinated by Schwann cells (Callizot et al., 2011, Exp Cell Res 317:2374-2383). This model, miniaturized in 96 wells, makes it possible to analyze the effects of molecules on the development of sensory neurons and on the myelination of axons by Schwann cells.
(§1) Protocol of the coculture of sensory neurons and Schwann cells: Female rats with 15 days gestation were killed by cervical dislocation (Wistar rats; January Lab) and the fetuses were removed from the uterus. Embryonic DRGs were collected and placed in an icy medium of Leibovitz 15 (L15; PanBiotech, Ref P04-27055, batch: 4590720) containing 2% Penicillin-Streptomycin (PS; PanBiotech, ref: P06-07100, batch: 7390220) and 1% bovine serum albumin (BSA; PanBiotech, Ref: P06-1391100, batch: H200403). DRGs were dissociated by trypsinization for 20 minutes (min) at 37° C. (Trypsin EDTA 1×; PanBiotech, Ref: P10-023100, batch: 3590720). The reaction was stopped by the addition of Dulbecco's modified Eagle medium (DMEM; PanBiotech, Ref: P04-03600, batch: 4080720) containing DNase I grade II (0.1 mg/ml; PanBiotech, Ref: P60-37780100, batch: H181015) and 10% fetal calf serum (FCS; Invitrogen, Ref: 10270106, batch: 2232584). The cells were then mechanically dissociated by 3 passes through a 10 ml pipette. The cells were then centrifuged at 180×g for 10 min at +4° C. on a layer of BSA (3.5%) in medium L15. The supernatant was discarded and the cell pellets were resuspended in a defined culture medium consisting of Neurobasal (Invitrogen, Ref: 21103049, batch: 2176355) supplemented with 2% B27; (Invitrogen, ref: 17504-044, batch: 2193553), L-glutamine (2 mM; PanBiotech, Ref: P04-80100, batch: 3301019), 2% PS and 50 ng/mL NGF (Sigma, Ref: N1408, L batch batch: SLCG1641). The viable cells were then counted in a Neubauer cytometer using the trypan blue exclusion test. The cells were seeded at a density of 12000 cells/wells in 96-well plates (pre-coated with poly-D-lysine; Greiner, Ref: 655940, batch: E20093UL) and have been grown at 37° C. in humidified air (95%)/C02 (5%) atmosphere. Half of the middle was changed every 2 days with fresh middle. The cells are held for 7 to 12 days to allow the proliferation of Schwann cells and sensory neurons. On day 8, the medium is supplemented with 50 μg/mL of ascorbic acid (AA; Sigma, Ref 092902, batch: 05316HJ-438) to initiate the differentiation of Schwann basal cells into myelinating Schwann cells.
Under these conditions, after 5 days of culture with AA, the myelin sheaths are detected with an anti-MAG antibody ([…]), an early marker of myelin. • A. Study of the neuroprotective properties of pluri-ionic compositions on myelinated sensory neurons after Cisplatin poisoning: curative protocol
Cis-diammineplatin (II) dichloride (cisplatin; Sigma, ref: P4394, batch: MKCL0026) was reconstituted in medium at 10 mg/ml (stock solution). The control environment was prepared under the same conditions. After 12 days of culture with AA, the primary sensory neurons were treated for 24 hours with pluri-ionic compositions in the presence or absence of cisplatin poisoning. The cisplatin preparation was used on neurons at a final concentration of 12 μM diluted in control medium for 24 hours of incubation. The pluri-ionic compositions tested are obtained by dissolution in water of lithium chloride, magnesium chloride hexahydrate and potassium chloride, and contain: • 1. KY21400: Li 10.37 mmol/kg, Mg 2.27 mmol/kg, K 16.88 mmol/kg • 2. KY21310: Li 5.76 mmol/kg, Mg 1.26 mmol/kg, K 9.38 mmol/kg • 3. KY21200: Li 1.73 mmol/kg, Mg 0.38 mmol/kg, K 2.81 mmol/kg […]

The test system is the same in assay [2]. As to the kind of experiment: Toxicity of isolated or combined ions on sensory neurons without cisplatin. Particulars: Table 1; isolated or combined ions (chlorides), no cisplatin. It is filed as cell-based, rat.
Description: as §1
The following conditions were tested: • Control medium • Control+cisplatin (12 μM, 24 h) • Pluri-ionic compositions KY21400, KY21310 or KY21200+cisplatin (12 μM, 24 h) • Pluri-ionic compositions KY21400, KY21310 or KY21200 • Control+individual ions at various concentrations • Control+cisplatin (12 μM, 24 h)+individual ions at various concentrations
For the evaluation of the toxicity of individual ions, the cells are fixed after 3 days of treatment. The cells are incubated with an anti-beta-tubulin mouse monoclonal antibody (1/2000, Sigma; Ref T8660-.2 mL; batch: 034M4790V) in a blocking buffer at 4° C. for 12 hours.
The cell nuclei were labeled with a fluorescent marker (Hoechst's solution, Sigma; ref: H-33258, batch: 046M4048V) in the same buffer.
For each condition, 20 images per well were taken using InCell Analyzer™ 2200 (GE Healthcare) with a magnification of 20×. The images of each well of culture were taken under the same conditions. The analysis was performed using Developer software (GE Healthcare). A total of 6 data per experimental condition was provided.
In parallel, the effect of isolated or combined ions two by two on the survival of sensory neurons and the length of neurites was also evaluated under the same conditions. The solutions are all prepared from the chlorides of the ions tested.

Assay [3] has as its system rat myelinated primary sensory neurons. As to the kind of experiment: Neuroprotection on rat myelinated primary sensory neurons after cisplatin injury, protection protocol (2 h pretreatment). The class given is cell-based.
Description: as §1
Cis-diammineplatin (II) dichloride (cisplatin; Sigma, ref: P4394, batch: MKCL0026) was reconstituted in medium at 10 mg/ml (stock solution). The control environment was prepared under the same conditions. […]
The following conditions were assessed: • Control medium • Control+cisplatin (12 μM, 24 h) • Pluri-ionic compositions KY21400, KY21310 or KY21200+cisplatin (12 μM, 24 h) • Pluri-ionic compositions KY21400, KY21310 or KY21200.
This study was carried out with 6 wells per condition and duplicated for validation of the results. The data taken and analyzed are the added results of the 2 studies. […]

[4] abbreviates: Table 2, isolated ions with cisplatin 12 μM, 24 h.
The mark [5] stands for this setting: concentrations ranging from 0.15 mg/kg to 1.2 mg/kg, same conditions.
[6] abbreviates: Table 1, with cisplatin 12 μM, 24 h, composition incubated at the same time.
[7] abbreviates: cisplatin 12 μM, 24 h, composition co-incubated.

The structures appear in SMILES notation.

As to `[K+]` [K 366 mg/kg = 9.38 mmol/kg], in assay [1] (setting [4]), the “Average percentage of neurite length relative to control” value is recorded as 91% and the “Mean percentage of sensory neurons number relative to control” value turned out to be 58%. In assay [2], the “Mean percentage of neurite length relative to control” value was 115% and the “Mean percentage of sensory neurons number relative to control” value worked out at 117%.

Take `[Cl-].[Li+]` [Li 40 mg/kg = 5.8 mmol/kg]: in assay [1] (setting [4]), the “Average percentage of neurite length relative to control” value stood at 80% and the “Mean percentage of sensory neurons number relative to control” value was 66%. In addition, in assay [2], the “Mean percentage of neurite length relative to control” value was determined as 77% and the “Mean percentage of sensory neurons number relative to control” value is recorded as 97%.

Take `[Mn+2]` [Manganese]: in assay [1] (setting [5]), the “effect on neurite length” value is on record as “without demonstrating any significant effect” and the “effect on neuron survival” value was “without demonstrating any significant effect”. Besides, in assay [3] (setting [5]), the “effect on the myelin sheath length” value is listed as “without demonstrating any significant effect”.

As to `[Cl-].[Cl-].[Mg+2]` [Mg 30.8 mg/kg = 1.27 mmol/kg], in assay [2], the “Mean percentage of neurite length relative to control” value turned out to be 98% and the “Mean percentage of sensory neurons number relative to control” value is given as 108%.

For `N.N.[Cl][Pt][Cl]` [cisplatin, Cis-diammineplatin (II) dichloride], the “Mean percentage of neurite length relative to control” value in assay [1] (setting [6]) stood at 35%. The “Mean percentage of sensory neurons number relative to control” value in assay [1] (setting [6]) was 39%; in assay [1] (setting [4]), 51-57%; in assay [1] (Table 4, with cisplatin (12 mm, 24 h)), 53.1%. In addition, the “Average percentage of neurite length relative to control” value in assay [1] (setting [4]) was 63-75%. For the same compound, the loss of myelin came to 78% in assay [1] (setting [7]) and 69% in assay [3] (cisplatin 12 μM, 24 h, two-hour pre-treatment with composition). Further, the loss of neurites came to 65% in assay [1] (setting [7]) and 51% in assay [3] (cisplatin 12 μM, 24 h). Moreover, in assay [1] (cisplatin 12 μM, 24 h, composition during the 24 h of cisplatin lesion), the “cell death of sensory neurons (dead cells)” value is given as 61%. In addition, in assay [3] (cisplatin 12 μM, 24 h, composition two hours before and during cisplatin injury), the cell death was determined as 64%.
